# Test results from patent publication US20260284051A1, “METHIONINE ADENOSYLTRANSFERASE 2A (MAT2A) INHIBITOR COMBINATIONS AND USES THEREOF” (INSILICO MEDICINE IP LIMITED, priority 2023, published 2026).
# Columns and labels:
# Type in all cases: in vivo
# KP4 MTAP null xenografts = test: Efficacy study of KP-4 human pancreatic cancer xenograft model in NOD SCID mice; conditions: for Tumor volume (mm^3) Final (mean): Mean ± SD
# Description: Efficacy Study of KP-4 Human Pancreatic Cancer Xenograft Model in NOD SCID Mice
# The KP-4 tumor cell line was maintained in vitro as monolayer culture in RPMI 1640 medium supplemented with 10% fetal bovine serum at 37° C. in an atmosphere of […] in air. The tumor cells were routinely subculture weekly by trypsin-EDTA treatment, not to exceed 4-5 passages. The cells growing in an exponential growth phase was harvested and counted for tumor inoculation.
# Each mouse was inoculated subcutaneously on the central right flank with KP-4 tumor cells (1×10^7) in 0.1 mL of RPMI-1640 without serum for the tumor development. The treatment started when the mean tumor size reached approximately 100 mm^3. Mice were assigned to groups such that the mean tumor volume is the same for each treatment group and time point.
# For routine monitoring, all study animals were monitored for not only tumor growth but also behavior such as mobility, food, and water consumption (by cage side checking only), body weight (BW), eye/hair matting and any other abnormal effect. Any mortality and/or abnormal clinical signs were recorded.
# Body weights of all animals were measured twice a week throughout the study. Body weight change, expressed in %, will be calculated using the following formula: BW change (%)=(BWDay x/BWDay 0)×100, where BWDay x is BW on a given day, and BWDay 0 is BW on Day 0 (initiation of treatment).
# The measurement of tumor size were conducted twice a week with a caliper and the tumor volume (mm^3) was estimated using the formula: TV=a×b^2/2, where a and b are long and short diameters of a tumor, respectively. The TVs were used for calculation of the tumor growth inhibition (TGI, an indicator of antitumor effectiveness) value using the formula: TGI (%)=[1−(Tn−T0)/(Cn−C0)]×100%, only over the dosing period (dosing days 0 to days n). Where: Tn—is the avg tumor volume at the respective day “n” after dosing throughout treatment period; T0—is the avg tumor volume in the treatment group at day 0 before treatment (immediately before); Cn—avg tumor volume in the control group at the respective day “n” after dosing throughout treatment period; and C0—average tumor volume in the control group at day 0 before treatment (immediately before). The experiment was terminated when the mean tumor volume exceeded 2000 mm^3 or severe body weight loss.
# The statistical software GraphPad Prism (version number: 8) was used to analyze the difference in tumor volume between the treatment group and the solvent control group. Two-way ANOVA and Bonferroni multiple tests were used to compare whether there was a significant difference in tumor volume between the vehicle control group and each treatment group during the administration period.
# Mean tumor volume at dosing start was approximately 102 mm^3, with ten mice randomized to each treatment group. In the KP4 MTAP null tumor model, mice were dosed orally, once per day (QD) with Vehicle, once per day (QD) with Compound 1 at 1, 3 mg/kg, once per day (QD) with AG270 at 100 mg/kg, mice were intravenous, per week with Docetaxel at 2.5 mg/kg, or Compound 1 combined with Docetaxel at each dose level.
# [1] = tested on: HCC15 MTAP null xenografts; test: Efficacy study of HCC15 human lung cancer xenograft model in NOD SCID mice; conditions: for Tumor volume (mm^3) Final (mean): Mean ± SD
# Description: Efficacy Study of HCC15 Human Lung Cancer Xenograft Model in NOD SCID Mice Methods:
# The HCC15 cells were maintained in vitro as a monolayer culture in 90% 1640+10% FBS, 100U/ml penicillin and 100 μg/ml streptomycin at 37° C. in an atmosphere of 5% CO2 in air. The tumor cells were routinely subcultured at a ratio of 1:2 to 1:3 every 3-4 days. Alternatively, Cultures were maintained by addition or replacement of fresh medium. Started cultures at 5×10^5 cells/mL and maintained between 0.5×10^5 and 2×10^6 cells/ml.
# NOD SCID mice, female, 6-8 weeks, weighing approximately 20-22 g.
# Each mouse were inoculated subcutaneously at the right flank with HCC15 cells in a 0.2 mL mixture of 1640 for tumor development (5×10^6 cells/mouse). Dosing was started when the average tumor size reaches approximately 100-200 mm^3 for the tumor efficacy study with tool and med chem molecules to look for efficacy vs vehicle tumor growth.
# Mean tumor volume at dosing start was approximately 133.09 mm^3, with ten mice randomized to each treatment group. In the HCC15 MTAP null tumor model, mice were dosed orally, once per day (QD) with Vehicle, once per day (QD) with Compound 1 at 3 mg/kg, once per day (QD) with AG270 at 100 mg/kg, mice were intravenous, per week with Docetaxel at 2.5 mg/kg, or Compound 1 combined with Docetaxel at each dose level.
# [2] = tested on: NCI-H838 MTAP null xenografts; test: Efficacy study of NCI-H838 human lung cancer xenograft model in NOD SCID mice; conditions: MRTX1719 50 mg/kg QD
# Text: Efficacy Study of NCI-H838 Human Lung Cancer Xenograft Model in NOD SCID Mice Methods:
# The NCI-H838 cancer cells were maintained in vitro with RPMI-1640 medium supplemented with 10% fetal bovine serum at 37TC in an atmosphere of 5% CO2 in the air. The cells in exponential growth phase were harvested and quantitated by cell counter before tumor inoculation.
# NOD SCID mice, female, 6-8 weeks, weighing approximately 20-22 g, All the mice were purchased from Shanghai Lingchang Bio-Tech Co., Ltd.
# Each mouse was inoculated subcutaneously at the right flank with NCI-H838 cells in a 0.1 mL of PBS mixed with Matrigel (1:1) for tumor development (5×10^6 cells/mouse). Dosing was started when the average tumor size reached approximately ~150 mm^3 for the tumor efficacy study with tool and med chem molecules to look for efficacy vs vehicle tumor growth.
# Mean tumor volume at dosing start was approximately 146.51 mm^3, with six mice randomized to each treatment group. In the NCI-H838 MTAP null tumor model, mice were dosed orally, once per day (QD) with vehicle, once per day (QD) with Compound 1 at 3, 10 mg/kg, mice were intravenous, once per day (QD) with PRMT5 inhibitor MRTX1719 at 50 mg/kg, or Compound 1 combined with MRTX1719 at each dose level.
# [3] = Docetaxel 2.5 mg/kg intravenous per week
molecule,measurement,setting,value
"CC(=O)O[C@@]12CO[C@@H]1C[C@H](O)[C@@]1(C)C(=O)[C@H](O)C3=C(C)[C@@H](OC(=O)[C@H](O)[C@@H](NC(=O)OC(C)(C)C)c4ccccc4)C[C@@](O)([C@@H](OC(=O)c4ccccc4)[C@H]21)C3(C)C [Docetaxel, docetaxel, reference compound]",TGI (%),KP4 MTAP null xenografts; [3],51.6%
same,Tumor volume (mm^3) Final (mean),KP4 MTAP null xenografts; [3],"1,159 ± 129 mm^3"
same,TGI (%),[1]; [3],58.5%
same,Tumor volume (mm^3) Final (mean),[1]; [3],515 ± 36 mm^3
AG270 [reference compound],TGI (%),KP4 MTAP null xenografts; AG270 100 mg/kg orally QD,55.7%
same,Tumor volume (mm^3) Final (mean),KP4 MTAP null xenografts; AG270 100 mg/kg orally QD,"1,070 ± 132 mm^3"
same,TGI (%),"[1]; AG270 100 mg/kg orally QD, 100 mg/kg",55.3%
same,Tumor volume (mm^3) Final (mean),[1]; AG270 100 mg/kg orally QD,544 ± 30 mm^3
"Cn1ncc(-c2ccc3c(=O)[nH]nc(CN)c3c2)c1-c1c(F)c(Cl)cc(OC2CC2)c1C#N [MRTX1719, reference compound]",TGI (%),[2],81.5%
same,Tumor volume (mm^3) Final (mean),[2]; Mean ± SD,501 ± 69 mm^3
